Measured values from patent publication US8163771B2, “11 β-HSD1 modulators” (Exelixis, Inc., priority 2008, dated 2012).

Molecular target: T1, recombinant human 11 β-HSD1 (Homo sapiens, UniProt P28845)
T1 construct: made in house; host or cells: E. coli
Assay: 11 β-HSD1 SPA Assay (Scintillation Proximity Assay)
Type: biochemical
Method in brief: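 Scintillation proximity read-out of cortisol formed from 40 nM [3H]cortisone by purified recombinant human enzyme (30-100 nM, E. coli) with 1 mM NADPH, pH7.4, 2 hours at room temperature; beads with cortisol antibody and glycyrrhetinic acid stop the reaction, read next day. IC50 derived from inhibition normalised to background and maximal wells.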

T1 sequence (P28845 whole entry): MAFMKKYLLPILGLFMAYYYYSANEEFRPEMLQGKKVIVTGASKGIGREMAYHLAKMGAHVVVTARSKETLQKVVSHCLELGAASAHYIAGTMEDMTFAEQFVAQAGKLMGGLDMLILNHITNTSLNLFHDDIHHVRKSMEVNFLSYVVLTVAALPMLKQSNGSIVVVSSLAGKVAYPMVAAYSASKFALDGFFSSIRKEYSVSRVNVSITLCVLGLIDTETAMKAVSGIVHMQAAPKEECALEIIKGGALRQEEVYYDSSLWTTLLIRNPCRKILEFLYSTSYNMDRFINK

SMILES | IC50
CC(C)(Oc1ccc(Cl)c(Cl)c1)C(=O)N[C@H]1C[C@H]2CC[C@@H](C1)N2c1ccc(S(N)(=O)=O)cn1 [Example 205, N-{8-[5-(aminosulfonyl)pyridin-2-yl]-8-azabicyclo[3.2.1]oct-3-endo-yl}-2-[(3,4-dichlorophenyl)oxy]-2-methylpropanamide] | < 200 nM
CC(C)(Oc1ccc(Cl)c(Cl)c1)C(=O)N[C@H]1C[C@H]2CC[C@@H](C1)N2c1ccc(S(C)(=O)=O)cc1 [Example 206, 2-[(3,4-dichlorophenyl)oxy]-2-methyl-N-{8-[4-(methylsulfonyl)phenyl]-8-azabicyclo[3.2.1]oct-3-endo-yl}propanamide] | < 2000 nM
CC(C)(Oc1ccc(F)c(F)c1)C(=O)N[C@H]1C[C@H]2CC[C@@H](C1)N2c1ccc(S(C)(=O)=O)cn1 [Example 207, 2-[(3,4-difluorophenyl)oxy]-2-methyl-N-{8-[5-(methylsulfonyl)pyridin-2-yl]-8-azabicyclo[3.2.1]oct-3-endo-yl}propanamide] | < 2000 nM
CC(C)(Oc1ccc(F)c(F)c1)C(=O)N[C@H]1C[C@H]2CC[C@@H](C1)N2c1ccc(S(N)(=O)=O)cn1 [Example 208, N-{8-[5-(aminosulfonyl)pyridin-2-yl]-8-azabicyclo[3.2.1]oct-3-endo-yl}-2-[(3,4-difluorophenyl)oxy]-2-methylpropanamide] | < 2000 nM
CC(C)(Oc1ccc(F)c(F)c1)C(=O)N[C@H]1C[C@H]2CC[C@@H](C1)N2c1ccc(S(C)(=O)=O)cc1 [Example 209, 2-[(3,4-difluorophenyl)oxy]-2-methyl-N-{8-[4-(methylsulfonyl)phenyl]-8-azabicyclo[3.2.1]oct-3-endo-yl}propanamide] | < 2000 nM
CC(C)(Oc1ccc(F)c(F)c1)C(=O)N[C@H]1C[C@H]2CC[C@@H](C1)N2c1ccc(C(=O)NCC(F)(F)F)cc1 [Example 210, 4-[3-endo-({2-[(3,4-difluorophenyl)oxy]-2-methylpropanoyl}amino)-8-azabicyclo[3.2.1]oct-8-yl]-N-(2,2,2-trifluoroethyl)benzamide] | < 200 nM
CC(C)(Oc1ccc(Cl)cc1C(F)(F)F)C(=O)N[C@H]1C[C@H]2CC[C@@H](C1)N2c1ccc(S(N)(=O)=O)cn1 [Example 211, N-{8-[5-(aminosulfonyl)pyridin-2-yl]-8-azabicyclo[3.2.1]oct-3-endo-yl}-2-{[4-chloro-2-(trifluoromethyl)phenyl]oxy}-2-methylpropanamide] | < 200 nM
Cc1ccc(OC(C)(C)C(=O)N[C@H]2C[C@H]3CC[C@@H](C2)N3c2ccc(S(C)(=O)=O)cn2)c(Cl)c1 [Example 212, 2-[(2-chloro-4-methylphenyl)oxy]-2-methyl-N-{8-[5-(methylsulfonyl)pyridin-2-yl]-8-azabicyclo[3.2.1]oct-3-endo-yl}propanamide] | < 200 nM
Cc1ccc(OC(C)(C)C(=O)N[C@H]2C[C@H]3CC[C@@H](C2)N3c2ccc(S(N)(=O)=O)cn2)c(Cl)c1 [Example 213, N-{8-[5-(aminosulfonyl)pyridin-2-yl]-8-azabicyclo[3.2.1]oct-3-endo-yl}-2-[(2-chloro-4-methylphenyl)oxy]-2-methylpropanamide] | < 200 nM
Cc1ccc(OC(C)(C)C(=O)N[C@H]2C[C@H]3CC[C@@H](C2)N3c2ccc(S(C)(=O)=O)cc2)c(Cl)c1 [Example 214, 2-[(2-chloro-4-methylphenyl)oxy]-2-methyl-N-{8-[4-(methylsulfonyl)phenyl]-8-azabicyclo[3.2.1]oct-3-endo-yl}propanamide] | < 200 nM
CC(C)(Oc1ccc(F)c(Cl)c1Cl)C(=O)N[C@H]1C[C@H]2CC[C@@H](C1)N2c1ccc(S(N)(=O)=O)cn1 [Example 215, N-{8-[5-(aminosulfonyl)pyridin-2-yl]-8-azabicyclo[3.2.1]oct-3-endo-yl}-2-[(2,3-dichloro-4-fluorophenyl)oxy]-2-methylpropanamide] | < 200 nM
CC(C)(Oc1cc(F)c(F)cc1F)C(=O)N[C@H]1C[C@H]2CC[C@@H](C1)N2c1ccc(S(N)(=O)=O)cn1 [Example 216, N-{8-[5-(aminosulfonyl)pyridin-2-yl]-8-azabicyclo[3.2.1]oct-3-endo-yl}-2-methyl-2-[(2,4,5-trifluorophenyl)oxy]propanamide] | < 200 nM
Cc1cc(F)ccc1OC(C)(C)C(=O)N[C@H]1C[C@H]2CC[C@@H](C1)N2c1ccc(S(C)(=O)=O)cn1 [Example 217, 2-[(4-fluoro-2-methylphenyl)oxy]-2-methyl-N-{8-[5-(methylsulfonyl)pyridin-2-yl]-8-azabicyclo[3.2.1]oct-3-endo-yl}propanamide] | < 200 nM
Cc1cc(F)ccc1OC(C)(C)C(=O)N[C@H]1C[C@H]2CC[C@@H](C1)N2c1ccc(S(N)(=O)=O)cn1 [Example 218, N-{8-[5-(aminosulfonyl)pyridin-2-yl]-8-azabicyclo[3.2.1]oct-3-endo-yl}-2-[(4-fluoro-2-methylphenyl)oxy]-2-methylpropanamide] | < 200 nM
Cc1cc(F)ccc1OC(C)(C)C(=O)N[C@H]1C[C@H]2CC[C@@H](C1)N2c1ccc(S(C)(=O)=O)cc1 [Example 219, 2-[(4-fluoro-2-methylphenyl)oxy]-2-methyl-N-{8-[4-(methylsulfonyl)phenyl]-8-azabicyclo[3.2.1]oct-3-endo-yl}propanamide] | < 200 nM
COc1cc(F)ccc1OC(C)(C)C(=O)N[C@H]1C[C@H]2CC[C@@H](C1)N2c1ccc(S(C)(=O)=O)cn1 [Example 220] | < 200 nM
COc1cc(F)ccc1OC(C)(C)C(=O)N[C@H]1C[C@H]2CC[C@@H](C1)N2c1ccc(S(N)(=O)=O)cn1 [Example 221, N-{8-[5-(aminosulfonyl)pyridin-2-yl]-8-azabicyclo[3.2.1]oct-3-endo-yl}-2-{[4-fluoro-2-(methyloxy)phenyl]oxy}-2-methylpropanamide] | < 200 nM
COc1cc(F)ccc1OC(C)(C)C(=O)N[C@H]1C[C@H]2CC[C@@H](C1)N2c1ccc(S(C)(=O)=O)cc1 [Example 222, 2-{[4-fluoro-2-(methyloxy)phenyl]oxy}-2-methyl-N-{8-[4-(methylsulfonyl)phenyl]-8-azabicyclo[3.2.1]oct-3-endo-yl}propanamide] | < 200 nM
CC(C)(Oc1ccc(Cl)cc1F)C(=O)N[C@H]1C[C@H]2CC[C@@H](C1)N2c1ccc(S(C)(=O)=O)cc1 [Example 223, 2-[(4-chloro-2-fluorophenyl)oxy]-2-methyl-N-{8-[4-(methylsulfonyl)phenyl]-8-azabicyclo[3.2.1]oct-3-endo-yl}propanamide] | < 200 nM
CC(C)(Oc1ccc(F)cc1F)C(=O)N[C@H]1C[C@H]2CC[C@@H](C1)N2c1ccc(S(C)(=O)=O)cc1 [Example 224, 2-[(2,4-difluorophenyl)oxy]-2-methyl-N-{8-[4-(methylsulfonyl)phenyl]-8-azabicyclo[3.2.1]oct-3-endo-yl}propanamide] | < 200 nM
CC(C)(Oc1cc(F)c(F)cc1Cl)C(=O)N[C@H]1C[C@H]2CC[C@@H](C1)N2c1ccc(S(C)(=O)=O)cc1 [Example 225, 2-[(2-chloro-4,5-difluorophenyl)oxy]-2-methyl-N-{8-[4-(methylsulfonyl)phenyl]-8-azabicyclo[3.2.1]oct-3-endo-yl}propanamide] | < 200 nM
CC(C)(Oc1ccc(F)c(Cl)c1)C(=O)N[C@H]1C[C@H]2CC[C@@H](C1)N2c1ccc(S(C)(=O)=O)cn1 [Example 226, 2-[(3-chloro-4-fluorophenyl)oxy]-2-methyl-N-{8-[5-(methylsulfonyl)pyridin-2-yl]-8-azabicyclo[3.2.1]oct-3-endo-yl}propanamide] | < 200 nM
CC(C)(Oc1ccc(F)c(Cl)c1)C(=O)N[C@H]1C[C@H]2CC[C@@H](C1)N2c1ccc(S(N)(=O)=O)cn1 [Example 227, N-{8-[5-(aminosulfonyl)pyridin-2-yl]-8-azabicyclo[3.2.1]oct-3-endo-yl}-2-[(3-chloro-4-fluorophenyl)oxy]-2-methylpropanamide] | < 200 nM
CC(C)(Oc1ccc(F)c(Cl)c1)C(=O)N[C@H]1C[C@H]2CC[C@@H](C1)N2c1ccc(S(C)(=O)=O)cc1 [Example 228, 2-[(3-chloro-4-fluorophenyl)oxy]-2-methyl-N-{8-[4-(methylsulfonyl)phenyl]-8-azabicyclo[3.2.1]oct-3-endo-yl}propanamide] | < 2000 nM
CC(C)(Oc1ccc(Cl)cc1F)C(=O)N[C@H]1C[C@H]2CC[C@@H](C1)N2c1ccc(S(C)(=O)=O)cn1 [Example 229, 2-[(4-chloro-2-fluorophenyl)oxy]-2-methyl-N-{8-[5-(methylsulfonyl)pyridin-2-yl]-8-azabicyclo[3.2.1]oct-3-endo-yl}propanamide] | < 200 nM
CC(C)(Oc1ccc(F)cc1)C(=O)N[C@H]1C[C@H]2CC[C@@H](C1)N2c1ccc(S(C)(=O)=O)cn1 [Example 230, 2-[(4-fluorophenyl)oxy]-2-methyl-N-{8-[5-(methylsulfonyl)pyridin-2-yl]-8-azabicyclo[3.2.1]oct-3-endo-yl}propanamide] | < 2000 nM
CC(C)(Oc1cc(F)c(F)cc1Cl)C(=O)N[C@H]1C[C@H]2CC[C@@H](C1)N2c1ccc(S(C)(=O)=O)cn1 [Example 231, 2-[(2-chioro-4,5-difluorophenyl)oxy]-2-methyl-N-{8-[5-(methylsulfonyl)pyridin-2-yl]-8-azabicyclo[3.2.1]oct-3-endo-yl}propanamide] | < 200 nM
CC(C)(Oc1cc(F)c(F)cc1F)C(=O)N[C@H]1C[C@H]2CC[C@@H](C1)N2c1ccc(S(C)(=O)=O)cn1 [Example 232, 2-methyl-N-{8-[5-(methylsulfonyl)pyridin-2-yl]-8-azabicyclo[3.2.1]oct-3-endo-yl}-2-[(2,4,5-trifluorophenyl)oxy]propanamide] | < 200 nM
CC(C)(Oc1ccc(F)cc1)C(=O)N[C@H]1C[C@H]2CC[C@@H](C1)N2c1ccc(S(C)(=O)=O)cc1 [Example 233, 2-[(4-fluorophenyl)oxy]-2-methyl-N-{8-[4-(methylsulfonyl)phenyl]-8-azabicyclo[3.2.1]oct-3-endo-yl}propanamide] | < 2000 nM
